This assay in a line: In vitro inhibitory potency was measured against phenylethanolamine N-methyl-transferase.

The record followed here is BindingDB's records for doi:10.1021/jm00179a007 (1980).

Each structure is given as a SMILES string.

For orientation: IC50 means the concentration that inhibits the measured activity by half.

Turning to `NCc1cccc(Cl)c1` [(3-chlorophenyl)methanamine], the IC50 amounted to 9 µM. In turn, `CC(N)Cc1ccc(Cl)cc1` (configuration not stated) [para-chloroamphetamine] yielded an IC50 of 300 µM.
